These results are taken from US20130109682A1, “CYCLIC ETHER COMPOUNDS USEFUL AS KINASE INHIBITORS” (NOVARTIS AG, priority 2010, published 2013).

Where two headings read alike, the source gives them in different places.

For test [1], the target named is PKCα (Homo sapiens, UniProt P17252). The test is described as follows: PKCα kinase Caliper assay. The settings on record: read-out: PKC IC50. Type of test: biochemical. As to the method: PKCα and cABLT315 Kinase Caliper Assays
Assays were performed in 384 well microtiter plates. Each assay plate contained 8-point serial dilutions for test compounds, as well as two 16-point serial dilutions of staurosporine as reference compound, plus 16 high- and 16 low controls. Liquid handling and incubation steps were done on a Thermo CatX workstation equipped with a Innovadyne Nanodrop Express. Between pipetting steps, tips were cleaned in wash cycles using wash buffer. Plates with terminated kinase reactions were transferred to the Caliper LC3000 workstations for reading. Phosphorylated and unphosphorylated peptides were separated using the Caliper microfluidic mobilitishift technology and Kinase activities were calculated from the amounts of formed phospho-peptide.
1. 0.05 μA Compound (start with 1.8 mM in 90% DMSO/10% H2O)
2. +4.5 μl 2× peptide/ATP solution
3. +4.5 μl 2× enzyme solution
4. Incubate for 60 min at 30° C.
4. +16 μl stop/run buffer
Independent of the kinase, all reactions were done performed in 50 mM HEPES, pH 7.5, 1 mM DTT, 0.02% Tween20, 0.02% BSA, and 0.6% DMSO.

The target in test [2] is GSK3β (Homo sapiens, UniProt P49841). As to the kind of experiment: GSK3β ATP depletion assay. The format is biochemical. To be noted: read-out: GSK3b IC50. The essentials:
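Human GSK3β (5 nM) preincubated 15 min with 10 μM biotinylated phospho-CREB peptide in pH 7.5 Tris buffer (15 mM MgCl2, 1 mM DTT, 0.1% BSA, 2.5% DMSO). Reaction started with 2 μM ATP and run to about 50% ATP depletion. Remaining ATP measured by KinaseGlo luminescence.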

The target of test [3] is PDGFRaV561D kinase (Homo sapiens, UniProt P16234, V561D). As to the kind of experiment: PDGFRaV561D kinase inhibition assay (LanthaScreen TR-FRET). To be noted: read-out: PDGFRa IC50. Type of test: biochemical. Here is the method:
PDGFRaV561D Kinase Inhibition Assay
LanthaScreen™ is the detection of Time-Resolved Fluorescence Resonance Energy Transfer (TR-FRET) using lanthanide chelates to measure interactions between various binding partners. The application of TR-FRET to assay kinase activity was first described by Mathis (1995). A TR-FRET assay was used to measure PDGFRaV561D kinase inhibitory activity. The assay panel was run on a Biomek FX liquid handling workstations. To the assay plates containing […] compound or control solutions, 4.5 μL of buffer A (50 mM TRIS-HCl pH 7.4, 2 mM DTT, 0.02% Tween 20, 0.02 mM Na3VO4, H2O nanpure) including a generic concentration of ATP (2 μM f.c.) was added per well, followed by […] of buffer B (4 uM ATP in Buffer A) including a generic concentration of polyEAY (50 nM f.c.), PDGFRaV561D kinase, and divalent cations. Final concentration of kinase and cations were: [PDGFRaV561D kinase]=4.4 nM, [Mn]=10 mM. After 1 hour of incubation the kinase reactions were stopped by the addition of 4.5 μL of stop solution D (50 mM EDTA, 20 mM TRIS-HCl pH 7.4, 0.04% NP-40) immediately followed by 4.5 μL of buffer A (50 mM TRIS-HCl pH 7.4, 2 mM DTT, 0.02% Tween 20, 0.02 mM Na3VO4, H2O nanpure) including the Tb-labeled P-20 antibody to give a total detection volume of […]. After an incubation time of 45 min in the dark, the plates were transferred into the Pherastar fluorescence reader for counting. The effect of compound on the enzymatic activity was obtained from the linear progress curves and determined from one reading (end point measurement).

Test [4] relates to KMS11 (human myeloma cell line). As to the kind of experiment: Cell proliferation assay (CellTiter-Glo), KMS11. Type of test: cell-based. The settings on record: Homo sapiens, KMS-11. The method, boiled down: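 KMS11 cells in IMDM with 10% FBS and sodium pyruvate, seeded at 2000 cells/well on assay day. Compound added at 2× to equal volume of cells, incubated 3 days at 37° C. Viability read by CellTiter-Glo luminescence; EC50 derived.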

Chain of GSK3β (P49841 whole entry, species assumed): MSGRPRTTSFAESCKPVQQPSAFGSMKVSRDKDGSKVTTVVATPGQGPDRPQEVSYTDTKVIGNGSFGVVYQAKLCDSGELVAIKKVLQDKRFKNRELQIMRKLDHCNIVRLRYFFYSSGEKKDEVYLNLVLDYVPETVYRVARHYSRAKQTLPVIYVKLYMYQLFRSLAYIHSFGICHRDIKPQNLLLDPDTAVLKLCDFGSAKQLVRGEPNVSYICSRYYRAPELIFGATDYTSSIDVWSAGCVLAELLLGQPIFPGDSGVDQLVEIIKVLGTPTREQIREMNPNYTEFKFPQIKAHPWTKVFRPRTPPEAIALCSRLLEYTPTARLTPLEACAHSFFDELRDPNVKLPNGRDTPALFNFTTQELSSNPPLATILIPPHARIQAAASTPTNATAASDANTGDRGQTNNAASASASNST
Chain of PDGFRaV561D kinase (P16234 24-1089 V561D): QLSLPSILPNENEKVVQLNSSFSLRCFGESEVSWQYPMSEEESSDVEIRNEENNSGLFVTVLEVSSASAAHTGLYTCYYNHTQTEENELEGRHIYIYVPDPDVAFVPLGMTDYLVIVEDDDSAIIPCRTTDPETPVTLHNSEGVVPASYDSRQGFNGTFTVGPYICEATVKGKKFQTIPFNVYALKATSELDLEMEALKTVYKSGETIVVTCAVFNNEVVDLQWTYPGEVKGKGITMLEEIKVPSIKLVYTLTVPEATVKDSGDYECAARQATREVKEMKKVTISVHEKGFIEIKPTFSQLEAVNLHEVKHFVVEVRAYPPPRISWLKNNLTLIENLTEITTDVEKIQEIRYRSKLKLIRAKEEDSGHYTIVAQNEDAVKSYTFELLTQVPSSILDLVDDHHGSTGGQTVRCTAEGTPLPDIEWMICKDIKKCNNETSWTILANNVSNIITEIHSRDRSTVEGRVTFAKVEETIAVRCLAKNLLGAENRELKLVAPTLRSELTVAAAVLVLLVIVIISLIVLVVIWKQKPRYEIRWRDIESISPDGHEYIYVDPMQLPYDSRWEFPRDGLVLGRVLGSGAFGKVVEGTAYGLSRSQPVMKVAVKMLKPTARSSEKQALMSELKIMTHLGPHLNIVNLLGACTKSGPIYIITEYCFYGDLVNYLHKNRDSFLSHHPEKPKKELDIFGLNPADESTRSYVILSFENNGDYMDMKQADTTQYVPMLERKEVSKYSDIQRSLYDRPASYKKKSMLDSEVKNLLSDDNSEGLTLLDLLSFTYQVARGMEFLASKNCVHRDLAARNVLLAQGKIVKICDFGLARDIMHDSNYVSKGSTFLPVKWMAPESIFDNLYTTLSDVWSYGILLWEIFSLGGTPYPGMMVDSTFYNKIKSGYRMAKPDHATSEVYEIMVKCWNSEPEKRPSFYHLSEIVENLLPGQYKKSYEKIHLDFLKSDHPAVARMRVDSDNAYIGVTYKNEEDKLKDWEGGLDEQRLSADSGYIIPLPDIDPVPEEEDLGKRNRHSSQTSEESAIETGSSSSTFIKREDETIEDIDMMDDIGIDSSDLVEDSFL

The term IC50 denotes the midpoint of a concentration-inhibition curve. As for `CC1(C)C[C@H](N)C[C@@H](c2ccncc2NC(=O)c2nc(-c3ccccc3)cnc2N)O1` [Example 297, 3-amino-N-(4-((2S,4R)-4-amino-6,6-dimethyltetrahydro-2H-pyran-2-yl)pyridin-3-yl)-6-phenylpyrazine-2-carboxamide], the IC50 in test [1] (PKCα Caliper assay) amounted to 0.01 µM; in test [2] (ATP depletion assay), 0.0079 µM; in test [3], 0.15 µM.
`C[C@]1(O)[C@@H](N)C[C@H](c2ccncc2NC(=O)c2nc(-c3ccccc3)cnc2N)OC12CC2` [Example 351, 3-amino-N-(4-((5R,7S,8S)-7-amino-8-hydroxy-8-methyl-4-oxaspiro[2.5]octan-5-yl)pyridin-3-yl)-6-phenylpyrazine-2-carboxamide]: the results for the 50% inhibitory concentration (IC50) in test [2] (ATP depletion assay) and in test [3] were 0.0004 µM and 0.018 µM, respectively.
`Nc1ncc(-c2ccccc2)nc1C(=O)Nc1cnccc1[C@H]1C[C@@H](O)[C@@]2(O)CCCC[C@H]2O1` [Example 173, 3-amino-N-(4-((2R,4R,4aS,8aR)-4,4a-dihydroxyoctahydro-2H-chromen-2-yl)pyridin-3-yl)-6-phenylpyrazine-2-carboxamide]: the IC50 in test [1] amounted to 0.31 µM; in test [2], 0.0014 µM; in test [3], 0.048 µM.
`CC1(C)C[C@@H](N)C[C@H](c2ccncc2NC(=O)c2nc(-c3ccccc3)cnc2N)O1` [Example 296, 3-amino-N-(4-((2R,4S)-4-amino-6,6-dimethyltetrahydro-2H-pyran-2-yl)pyridin-3-yl)-6-phenylpyrazine-2-carboxamide]: the 50% inhibitory concentration (IC50) in test [1] (PKCα Caliper assay) stood at 0.04 µM; in test [2] (ATP depletion assay) it was 0.0094 µM; in test [3], 0.0087 µM.
As a reminder, the EC50 is the concentration at which the effect is half-maximal. As to `CC[C@H]1O[C@@H](c2ccncc2NC(=O)c2nc(-c3ccccc3)ncc2N)C[C@@H](O)[C@@H]1O` [Example 39, 5-amino-N-(4-((2R,4R,5S,6R)-6-ethyl-4,5-dihydroxytetrahydro-2H-pyran-2-yl)pyridin-3-yl)-2-phenylpyrimidine-4-carboxamide], the half-inhibitory concentration (IC50) is greater than 10 µM in test [1] and 0.267 µM in test [2]. Besides, in test [4] (KMS11-Luc cells), the EC50 was greater than 10 µM.
Turning to `C[C@H]1O[C@@H](c2ccncc2NC(=O)c2nc(-c3ccccc3)ncc2N)C[C@@H](O)[C@]1(C)O` [Example 32, 5-amino-N-(4-((2R,4R,5S,6R)-4,5-dihydroxy-5,6-dimethyltetrahydro-2H-pyran-2-yl)pyridin-3-yl)-2-phenylpyrimidine-4-carboxamide], the IC50 was greater than 10 µM in test [1] and 0.454 µM in test [2]. In addition, the EC50 in test [4] (KMS11-Luc cells) was determined as 1.12 µM.
On the same counts, the results for `C[C@H]1O[C@@H](c2ccncc2NC(=O)c2nc(-c3ccccc3)cnc2N)[C@H](F)[C@@H](O)[C@]1(C)O` [Example 58, 3-amino-N-(4-((2S,3R,4S,5S,6R)-3-fluoro-4,5-dihydroxy-5,6-dimethyltetrahydro-2H-pyran-2-yl)pyridin-3-yl)-6-phenylpyrazine-2-carboxamide] are 0.82 µM, 0.001 µM and 1 µM.
Regarding `C[C@@]1(O)[C@@H](N)C[C@@H](c2ccncc2NC(=O)c2nc(-c3ccccc3)cnc2N)OC12CC2` [Example 350, 3-amino-N-(4-((5S,7S,8R)-7-amino-8-hydroxy-8-methyl-4-oxaspiro[2.5]octan-5-yl)pyridin-3-yl)-6-phenylpyrazine-2-carboxamide], the concentration for half-maximal inhibition (IC50) in test [1] (PKCα Caliper assay) came out at 0.021 µM; in test [2] (ATP depletion assay), 0.0078 µM; in test [3] it was 0.42 µM.
As for `CC[C@]1(O)[C@H](N)C[C@H](c2ccncc2NC(=O)c2ccc(F)c(-c3c(F)cccc3F)n2)O[C@@H]1C` [Example 232, N-(4-((2R,4R,5S,6R)-4-amino-5-ethyl-5-hydroxy-6-methyltetrahydro-2H-pyran-2-yl)pyridin-3-yl)-6-(2,6-difluorophenyl)-5-fluoropicolinamide], the half-inhibitory concentration (IC50) was 9.5 µM in test [1] (PKCα Caliper assay) and 0.63 µM in test [3].
On to `C[C@H]1O[C@@H](c2ccncc2NC(=O)c2nc(-c3ccccc3)cnc2N)C[C@@H](O)[C@]1(C)O` [Example 84, 3-amino-N-(4-((2R,4R,5S,6R)-4,5-dihydroxy-5,6-dimethyltetrahydro-2H-pyran-2-yl)pyridin-3-yl)-6-phenylpyrazine-2-carboxamide], for which the IC50 in test [1] turned out to be 0.49 µM; in test [2], 0.001 µM. This compound also displayed an EC50 in test [4] (KMS11-Luc cells) of 0.9 µM.
The matching figures for `C[C@@H]1O[C@H](c2ccncc2NC(=O)c2nc(-c3ccccc3)cnc2N)C[C@H](O)[C@@]1(C)O` [Example 86, 3-amino-N-(4-((2S,4S,5R,6S)-4,5-dihydroxy-5,6-dimethyltetrahydro-2H-pyran-2-yl)pyridin-3-yl)-6-phenylpyrazine-2-carboxamide]: 0.79 µM, 0.003 µM and 2.8 µM.
`CC(C)(C)[C@H]1O[C@@H](c2ccncc2NC(=O)c2nc(-c3ccccc3)cnc2N)C[C@H](N)[C@@H]1O` [Example 286, 3-amino-N-(4-((2R,4S,5S,6R)-4-amino-6-tert-butyl-5-hydroxytetrahydro-2H-pyran-2-yl)pyridin-3-yl)-6-phenylpyrazine-2-carboxamide]: the half-inhibitory concentration (IC50) stood at 0.0005 µM in test [2] (ATP depletion assay) and 0.28 µM in test [3]. For the same compound, the EC50 in test [4] (KMS11 cells, cell proliferation, read-out: KMS11-Luc EC50) is 1.97 µM.
As to `COc1cc(F)c(-c2nc(C(=O)Nc3cnccc3[C@H]3C[C@@H](N)[C@](C)(O)[C@@H](C)O3)ccc2F)c(F)c1` [Example 242, N-(4-((2R,4R,5S,6R)-4-amino-5-hydroxy-5,6-dimethyltetrahydro-2H-pyran-2-yl)pyridin-3-yl)-6-(2,6-difluoro-4-methoxyphenyl)-5-fluoropicolinamide], the IC50 in test [1] (PKCα Caliper assay) is greater than 10 µM; in test [2] (ATP depletion assay) it was 0.471 µM; in test [3], 0.4 µM.
The matching figures for `C[C@]1(O)[C@H](N)C[C@H](c2ccncc2NC(=O)c2nc(-c3ccccc3)cnc2N)OC12CC2` [Example 353, 3-amino-N-(4-((5R,7R,8S)-7-amino-8-hydroxy-8-methyl-4-oxaspiro[2.5]octan-5-yl)pyridin-3-yl)-6-phenylpyrazine-2-carboxamide]: 0.084 µM, 0.025 µM and 0.76 µM.
Turning to `C=C1[C@@H](O)C[C@@H](c2ccncc2NC(=O)c2nc(-c3ccccc3)cnc2N)OC12CC2` [Example 5, 3-amino-N-(4-((5S,7S)-7-hydroxy-8-methylene-4-oxaspiro[2.5]octan-5-yl)pyridin-3-yl)-6-phenylpyrazine-2-carboxamide], the IC50 stood at 0.06 µM in test [1] and 0.001 µM in test [2]. This compound also displayed an EC50 in test [4] (KMS11-Luc cells) of 0.09 µM.
As to `Nc1ncc(-c2ccccc2)nc1C(=O)Nc1cnccc1[C@H]1C[C@@H](O)[C@H](O)[C@@H](CCl)O1` [Example 36, 3-amino-N-(4-((2R,4R,5S,6S)-6-(chloromethyl)-4,5-dihydroxytetrahydro-2H-pyran-2-yl)pyridin-3-yl)-6-phenylpyrazine-2-carboxamide], the results for the IC50 in test [1] and in test [2] were 0.1 µM and 0.001 µM, respectively. The 50% effective concentration (EC50) in test [4] (KMS11-Luc cells) turned out to be 0.2 µM.
On the same counts, the results for `C[C@@H]1O[C@H](c2ccncc2NC(=O)c2nc(-c3ccccc3)cnc2N)[C@@H](F)[C@H](O)[C@@]1(C)O` [Example 63, 3-amino-N-(4-((2R,3S,4R,5R,6S)-3-fluoro-4,5-dihydroxy-5,6-dimethyltetrahydro-2H-pyran-2-yl)pyridin-3-yl)-6-phenylpyrazine-2-carboxamide] are 0.041 µM, 0.002 µM and 1.3 µM.
